Consider 2 compounds from patent US11066412B2, “Substituted pyrrolo[2,1-a]phthalazines and benzo[g]pyrrolo[2,1-a]phthalazines for the treatment of cancer” (Academia Sinica, priority 2017, dated 2021).

In data set [1] the test system is small cell lung cancer H526. The experiment in a line: in vitro cytotoxicity, PrestoBlue assay. To be noted: read-out: IC50 H526. In kind it is cell-based, human.
The test system of data set [2] is human lymphoblastic leukemia cell line (CCRF-CEM). In words: in vitro cytotoxicity, PrestoBlue assay. In kind it is cell-based. The conditions noted are these: 72-hr incubation; mean ± STDEV of three to six experiments; read-out: IC50 CCRF-CEM. In short, it runs like this:
(§1)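 Cells exposed to compounds for 72 hr, then viability read by PrestoBlue after 1-2 hr at 37° C, absorbance 570 and 600 nm.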

The test system of a further data set is pEGFP-N1 plasmid DNA. The experiment in a line: DNA cross-linking, alkaline agarose gel electrophoresis. Type of data set: biochemical. To be noted: FIG. 1; for formation of DNA interstrand crosslinks: 1-20 μM, 37° C., 2 hrs. As for the experimental part:
In the present example, BO-2590, BO-2577 (Formula I-A) and BO-2698, BO-2755, BO-2762 and BO-2768 (Formula I-B) were tested for their DNA crosslinking activity, in which the cross-linking was analyzed by alkaline agarose gel electrophoresis. In brief, purified pEGFP-N1 plasmid DNA (1,500 ng) was mixed with various concentrations (1-20 μM) of the tested compounds in 40 μL binding buffer (3 mM sodium chloride/1 mM sodium phosphate, pH 7.4, and 1 mM EDTA). The reaction mixture was incubated at 37° C. for 2 hrs. At the end of reaction, the plasmid DNA was linearized by digestion with BamHI and followed by precipitation with ethanol. The DNA pellets were dissolved and denatured in alkaline buffer (0.5 N NaOH-10mM EDTA). An aliquot of 20 μL of DNA solution (1,000 ng) was mixed with 4 μL of 6× alkaline loading dye and then electrophoretically resolved on a 0.8% alkaline agarose gel with NaOH-EDTA buffer at 4° C. The electrophoresis was carried out at 18V for 22 h. After staining the gels with an ethidium bromide solution, the DNA was visualized under UV light. Results are illustrated in FIG. 1.

For data set [3], the system named is vinblastine-resistant sub-cell line (CCRF-CEM/VBL). The experiment in a line: in vitro cytotoxicity, PrestoBlue assay. Type of data set: cell-based, human. To be noted: for IC50: 72-hr incubation, mean ± STDEV of three to six experiments, read-out: IC50 CEM/VBL; for resistance factor (IC50 CEM/VBL vs IC50 of the parent cell line): number in brackets. In short, it runs like this:
as §1

The test system of another data set is pancreatic cancer PacaS1. In words: in vitro cytotoxicity, PrestoBlue assay. Type of data set: cell-based, human. The conditions noted are these: Table 2. In a few lines: as §1
The subject of data set [4] is non-small cell lung cancer H460. The experiment in a line: in vitro cytotoxicity, PrestoBlue assay. To be noted: Table 2. In kind it is cell-based, human. In short, it runs like this: as §1
The test system of a further data set is colon cancer HCT-116. In words: in vitro cytotoxicity, PrestoBlue assay. The conditions noted are these: Table 2. In kind it is cell-based, human. In short, it runs like this:
as §1

The test system of another data set is γ-H2AX. The experiment in a line: immunohistochemical staining of tumor xenograft sections, DNA damage marker. In kind it is in vivo, nude mice. To be noted: FIG. 16, panel B. As for the experimental part: Tumor xenograft tissue sections on the slides were deparaffinized in xylene twice for 7 min each time. The slides were then rehydrated in graded ethanol, serially from 100% to 70%, followed by rinsing in dH2O. Antigen retrieval was performed using citrate buffer (0.01M, pH 6.0) with incubation in a cooker for 50 mins followed by ambient temperature cooling for 30 min. and then dH2O rinsing. Later slides were subjected to immunohistochemical (IHC) staining with primary antibodies (anti-rabbit CD31 antibody and anti-mouse γ-H2AX antibody) obtained from Abeam® following the manufacturer's instructions (Novolink Polymer Detection system, Leica Biosystems, Wetzlar, Germany).^11 After IHC processing, the slides were scanned digitally using the Panoramic 250 Flash II whole slide scanner and analyzed by 3[…] Panoramic viewer software (3[…] Ltd., Budapest, Hungary).
As BO-2590L is a DNA damaging agent, we thus investigated the effect of BO-2590L on the level of a DNA damage marker, γ-H2AX, via the use of immunohistochemical staining.

Data set [5] can be described thus: body weight changes of xenograft-bearing nude mice. Type of data set: in vivo. The conditions noted are these: for deleterious effects on the bodyweight of the test animals: micelle formulation, FIG. 12, panel B. As for the experimental part: Athymic nude mice bearing the nu/nu gene were obtained from the National Laboratory Animal Center (Taipei, Taiwan). Male nude mice (6 weeks or older weighing 20-24 g or more) were used for all human tumor xenografts. The tested compounds were intravenously administered through tail vein. Tumor volume was determined by measuring the length x width x height (or width) with calipers. The vehicle used for the tested compounds was normal saline (0.9% NaCl isotonic solution). For tumor-bearing nude mice during the course of the experiment, the % body weight changes refer to: (the total weight on reading day/the total weight on day treatment started)×100.

Data set [6] relates to human SCLC H526 xenografts. The experiment in a line: tumor growth in xenograft-bearing nude mice. In kind it is in vivo. The conditions noted are these: for tumor size: micelle formulation (Kolliphor/TWEEN 80/PEG400/ethanol/D5W), BO-2768 at 20 mg/kg twice daily, FIG. 12, panel A. As for the experimental part:
Athymic nude mice bearing the nu/nu gene were obtained from the National Laboratory Animal Center (Taipei, Taiwan). Male nude mice (6 weeks or older weighing 20-24 g or more) were used for all human tumor xenografts. The tested compounds were intravenously administered through tail vein. Tumor volume was determined by measuring the length x width x height (or width) with calipers. […] For tumor-bearing nude mice during the course of the experiment, the % body weight changes refer to: (the total weight on reading day/the total weight on day treatment started)×100.
In all experiments, the tumor cells were subcutaneously implanted in nude mice, and the BO-2590L was administered via tail vein when the tumor size reaching approximate 100 mm^3. […]
To confirm the therapeutic activity of BO-2590L, comparative experiments carried out by known chemotherapeutic agents, such as vatanalib and cisplatin, were also performed. Briefly, the H526 xenograft-bearing mice were divided into 4 groups which were treated with vehicle, BO-2590L (10 mg/kg, QD×9), vatalanib (100 mg/kg, QD×9), and cisplatin (4 mg/kg, Q2D×3), respectively. Results are illustrated in FIG. 11.
Results are illustrated in FIGS. 12 and 13.

Another data set has as its system H526 cells. In words: single cell electrophoresis (comet) assay. In kind it is cell-based. To be noted: FIG. 2. From the text:
The data is the average of 3 independent experiments.
To this purpose, cells were encapsulating in a low-melting-point agarose suspension on a microscope slide, then were lysed in neutral or alkaline (pH>13) condition, and electrophoresis of the suspended lysed cells. The term “comet” refers to the pattern of DNA migration through the electrophoresis gel, which often resembles a comet, and the intensity of the comet tail relative to the head reflects the number of DNA breaks.

Where two headings read alike, the source gives them in different places.

As for `Cc1c(CO)c(CO)c2c3ccccc3c(N3CCC(N4CCCCC4)CC3)nn12` [BO-2590, (6-([1,4′-Bipiperidin]-1′-yl)-3-methylpyrrolo[2,1-α]phthalazine-1,2-diyl)dimethanol], the IC50 came to 14 ± 4 nM in [1] (Table 2); 230 ± 30 nM in data set [2]; 250 ± 40 nM in [3]; 600 ± 110 nM in data set [4]; 400 ± 90 nM with colon cancer HCT-116. In addition, the “formation of DNA interstrand crosslinks” value with pEGFP-N1 plasmid DNA was “induced DNA interstrand crosslinks”. For the same compound, in the data set on pEGFP-N1 plasmid DNA, the “cross-linker strength compared with melphalan” value was “relatively stronger cross-linker than that of melphalan”. Further, the “resistance factor (IC50 CEM/VBL vs IC50 of the parent cell line)” value in data set [3] turned out to be 1.09 ×. For the same compound, the “IC50 Paca SI” value with pancreatic cancer PacaS1 worked out at 300 ± 80 nM. Further, in the data set on γ-H2AX, the “γ-H2AX signals, quantitative analysis” value was “time-dependently increased in γ-H2AX signals”. Also, in data set [5] (H526 xenograft mice), the “deleterious effects on the bodyweight of the test animals” value is reported as “none”. Moreover, the tumor size entry in data set [6] was “as effective as irinotecan and cisplatin in reducing the tumor size”.

In the case of `Cc1c(CO)c(CO)c2c3cc4ccccc4cc3c(N(C)C)nn12` [BO-2768, (6-(Dimethylamino)-3-methylbenzo[g]pyrrolo[2,1-α]phthalazine-1,2-diyl)dimethanol], the IC50 was found to be 50 ± 1 nM in data set [1] (Table 2); 40 ± 5 nM in data set [1] (Table 3); 190 ± 10 nM in data set [2]; 100 ± 10 nM in data set [3]; 1020 ± 160 nM in [4]; 650 ± 20 nM in the data set with colon cancer HCT-116. In addition, the “formation of DNA interstrand crosslinks” value in the data set with pEGFP-N1 plasmid DNA was “induced DNA interstrand crosslinks”. Besides, the “resistance factor (IC50 CEM/VBL vs IC50 of the parent cell line)” value in data set [3] was 0.53 ×. In addition, in the data set on pancreatic cancer PacaS1, the “IC50 Paca SI” value was 3980 ± 1040 nM. Besides, the “body weight of the test animals” value in [5] (H211 xenograft mice, co-administration of BO-2768 and cisplatin, FIG. 14, panel B) is given as “without adversely affecting the body weight”. Moreover, the “effects on the bodyweight of the test animals” value in data set [5] (H526 xenograft mice, 20 mg/kg twice per day, FIG. 13, panel B) is recorded as “without any deleterious effects on the bodyweight”. Moreover, in data set [5] (H526 xenograft mice), the “deleterious effects on the bodyweight of the test animals” value was “none”. Further, in data set [6] (20 mg/kg twice per day, entire time of the study, FIG. 13, panel A), the tumor growth result is on record as “completely suppress the growth of tumor”. Further, the “tumor growth, dose dependence” value in data set [6] (FIG. 13, panel A) is reported as “suppressed tumor growth in a dose-dependent manner”. The tumor size result in data set [6] is listed as “growth of tumor was completely suppressed”. Moreover, in the data set on H526 cells, the “DNA damage (comet tail)” value is on record as “capable of inducing DNA breaks in a dose dependent manner”.
